# Laboratory results as given in ChEMBL document CHEMBL3751713, “Synthesis and Biological Activity of Mono- and Di-N-acylated Aminoglycosides” (ACS Med Chem Lett, 2015).
# Assays:
# [1] = Drug metabolism assessed as Mycobacterium tuberculosis Eis mediated compound modification at 100 uM; type: ADME
# Bacillus cereus = assay: Antimicrobial activity against Gram-positive Bacillus cereus ATCC 17788 after 16 to 24 hrs by micro-dilution method; type: functional
# Staphylococcus aureus [2] = assay: Antimicrobial activity against Gram-positive methicillin-resistant Staphylococcus aureus 2 after 16 to 24 hrs by micro-dilution method; type: functional
# Pseudomonas aeruginosa = assay: Antimicrobial activity against Gram-negative Pseudomonas aeruginosa PAO1 after 16 to 24 hrs by micro-dilution method; type: functional
# Staphylococcus aureus [3] = assay: Antimicrobial activity against Gram-positive Staphylococcus aureus ATCC 29213 after 16 to 24 hrs by micro-dilution method; type: functional
# [4] = Drug metabolism assessed as Staphylococcus aureus Bifunctional AAC(6')-1e/APH(2'')-1a mediated compound modification at 100 uM; type: ADME
# [5] = target: T1, Aminoglycoside 3'-phosphotransferase (Escherichia coli, UniProt P00551); assay: Drug metabolism assessed as Escherichia coli APH(3')-Ia-mediated compound modification at 100 uM; type: ADME
# T1 sequence (P00551 whole entry): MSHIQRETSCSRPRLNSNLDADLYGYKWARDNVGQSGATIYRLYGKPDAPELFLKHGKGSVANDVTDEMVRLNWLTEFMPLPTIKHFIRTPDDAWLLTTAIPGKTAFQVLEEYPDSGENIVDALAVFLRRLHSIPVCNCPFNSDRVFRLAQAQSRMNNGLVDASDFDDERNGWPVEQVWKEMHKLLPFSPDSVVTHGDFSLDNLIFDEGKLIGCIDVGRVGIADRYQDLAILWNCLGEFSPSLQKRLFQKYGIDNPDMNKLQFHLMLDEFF
# Bacillus anthracis = assay: Antimicrobial activity against Gram-positive Bacillus anthracis str. Sterne after 16 to 24 hrs by micro-dilution method; type: functional
# Listeria monocytogenes = assay: Antimicrobial activity against Gram-positive Listeria monocytogenes ATCC 19115 after 16 to 24 hrs by micro-dilution method; type: functional
# Bacillus subtilis = assay: Antimicrobial activity against Gram-positive Bacillus subtilis 168 after 16 to 24 hrs by micro-dilution method; type: functional
# Haemophilus influenzae = assay: Antimicrobial activity against Gram-negative Haemophilus influenzae ATCC 51907 after 16 to 24 hrs by micro-dilution method; type: functional
# Staphylococcus aureus [6] = assay: Antimicrobial activity against Gram-positive methicillin-resistant Staphylococcus aureus 1 after 16 to 24 hrs by micro-dilution method; type: functional
# [7] = Drug metabolism assessed as Escherichia coli AAC(3)-IV mediated compound modification at 100 uM; type: ADME
# [8] = test system: Mycolicibacterium smegmatis; assay: Antimicrobial activity against Mycobacterium smegmatis MC2-155 after 16 to 24 hrs by micro-dilution method; type: functional; details: str. MC2 155
compound,measurement,setting,value
NCC(=O)NCC[C@H](O)C(=O)N[C@H]1C[C@@H](N)[C@H](O[C@H]2O[C@H](CNC(=O)CN)[C@@H](O)[C@H](O)[C@H]2O)[C@@H](O)[C@@H]1O[C@H]1O[C@H](CO)[C@@H](O)[C@H](N)[C@H]1O (stereo in doubt),Drug metabolism,[1],metabolite_detected
same,MIC,Bacillus cereus,> 150 mg/L
same,MIC,Staphylococcus aureus [2],> 128 mg/L
same,MIC,Pseudomonas aeruginosa,> 150 mg/L
same,MIC,Staphylococcus aureus [3],> 128 mg/L
same,Drug metabolism,[4],metabolite_detected
same,Drug metabolism,[5],metabolite_notdetected
same,MIC,Bacillus anthracis,> 128 mg/L
same,MIC,Listeria monocytogenes,> 150 mg/L
same,MIC,Bacillus subtilis,> 150 mg/L
same,MIC,Haemophilus influenzae,> 150 mg/L
same,MIC,Staphylococcus aureus [6],> 128 mg/L
same,Drug metabolism,[7],metabolite_detected
same,MIC,[8],64 mg/L
N[C@H]1[C@H](O)[C@H](O[C@@H]2[C@@H](O)[C@H](O[C@@H]3O[C@@H](CNC(=O)OCc4ccccc4)[C@H](O)C[C@@H]3N)[C@@H](N)C[C@H]2N)O[C@@H](CO)[C@@H]1O (stereo in doubt),Drug metabolism,[1],metabolite_detected
same,MIC,Bacillus cereus,> 150 mg/L
same,MIC,Staphylococcus aureus [2],> 128 mg/L
same,MIC,Pseudomonas aeruginosa,> 150 mg/L
same,MIC,Staphylococcus aureus [3],128 mg/L
same,Drug metabolism,[4],metabolite_detected
same,Drug metabolism,[5],metabolite_notdetected
same,MIC,Bacillus anthracis,64 mg/L
same,MIC,Listeria monocytogenes,> 150 mg/L
same,MIC,Bacillus subtilis,> 150 mg/L
same,MIC,Haemophilus influenzae,75 mg/L
same,MIC,Staphylococcus aureus [6],> 128 mg/L
same,Drug metabolism,[7],metabolite_detected
same,MIC,[8],16 mg/L
NCC[C@H](O)C(=O)N[C@@H]1C[C@H](N)[C@@H](O[C@H]2O[C@H](CN)[C@@H](O)[C@H](O)[C@H]2O)[C@H](O)[C@H]1O[C@H]1O[C@H](CO)[C@@H](O)[C@H](N)[C@H]1O [AMIKACIN],MIC,Bacillus cereus,9.4 mg/L
same,MIC,Staphylococcus aureus [2],32 mg/L
same,MIC,Pseudomonas aeruginosa,2.3 mg/L
same,MIC,Staphylococcus aureus [3],1 mg/L
same,MIC,Bacillus anthracis,16 mg/L
same,MIC,Listeria monocytogenes,9.4 mg/L
same,MIC,Bacillus subtilis,37.5 mg/L
same,MIC,Haemophilus influenzae,37.5 mg/L
same,MIC,Staphylococcus aureus [6],0.5 mg/L
same,MIC,[8],≤ 0.25 mg/L
NC[C@H]1O[C@H](O[C@H]2[C@H](O)[C@@H](O[C@H]3O[C@H](CO)[C@@H](O)[C@H](N)[C@H]3O)[C@H](N)C[C@@H]2N)[C@H](O)[C@@H](O)[C@@H]1O [KANAMYCIN],MIC,Bacillus cereus,9.4 mg/L
same,MIC,Staphylococcus aureus [2],> 128 mg/L
same,MIC,Pseudomonas aeruginosa,37.5 mg/L
same,MIC,Staphylococcus aureus [3],0.5 mg/L
same,MIC,Bacillus anthracis,> 128 mg/L
same,MIC,Listeria monocytogenes,4.7 mg/L
same,MIC,Bacillus subtilis,> 150 mg/L
same,MIC,Haemophilus influenzae,9.4 mg/L
same,MIC,Staphylococcus aureus [6],> 128 mg/L
same,MIC,[8],> 128 mg/L
CCN[C@@H]1C[C@H](N)[C@@H](O[C@H]2OC(CN)=CC[C@H]2N)[C@H](O)[C@H]1O[C@H]1OC[C@](C)(O)[C@H](NC)[C@H]1O [NETILMICIN],MIC,Bacillus cereus,4.7 mg/L
same,MIC,Staphylococcus aureus [2],≤ 0.25 mg/L
same,MIC,Pseudomonas aeruginosa,2.3 mg/L
same,MIC,Staphylococcus aureus [3],≤ 0.25 mg/L
same,MIC,Bacillus anthracis,≤ 0.25 mg/L
same,MIC,Listeria monocytogenes,2.3 mg/L
same,MIC,Bacillus subtilis,4.7 mg/L
same,MIC,Haemophilus influenzae,2.3 mg/L
same,MIC,Staphylococcus aureus [6],≤ 0.25 mg/L
same,MIC,[8],≤ 0.25 mg/L
CN[C@@H]1[C@@H](O)[C@@H](O[C@@H]2[C@@H](O)[C@H](O[C@H]3OC(CN)=CC[C@H]3N)[C@@H](N)C[C@H]2N)OC[C@]1(C)O [SISOMICIN],MIC,Bacillus cereus,9.4 mg/L
same,MIC,Staphylococcus aureus [2],≤ 0.25 mg/L
same,MIC,Pseudomonas aeruginosa,1.2 mg/L
same,MIC,Staphylococcus aureus [3],≤ 0.25 mg/L
same,MIC,Bacillus anthracis,≤ 0.25 mg/L
same,MIC,Listeria monocytogenes,2.3 mg/L
same,MIC,Bacillus subtilis,4.7 mg/L
same,MIC,Haemophilus influenzae,4.7 mg/L
same,MIC,Staphylococcus aureus [6],≤ 0.25 mg/L
same,MIC,[8],≤ 0.25 mg/L
NC[C@H]1O[C@H](O[C@H]2[C@H](O)[C@@H](O[C@H]3O[C@H](CO)[C@@H](O)[C@H](N)[C@H]3O)[C@H](N)C[C@@H]2N)[C@H](N)C[C@@H]1O [TOBRAMYCIN],MIC,Bacillus cereus,9.4 mg/L
same,MIC,Staphylococcus aureus [2],> 128 mg/L
same,MIC,Pseudomonas aeruginosa,0.6 mg/L
same,MIC,Staphylococcus aureus [3],0.5 mg/L
same,MIC,Bacillus anthracis,> 128 mg/L
same,MIC,Listeria monocytogenes,2.3 mg/L
same,MIC,Bacillus subtilis,9.4 mg/L
same,MIC,Haemophilus influenzae,4.7 mg/L
same,MIC,Staphylococcus aureus [6],≤ 0.25 mg/L
same,MIC,[8],≥ 128 mg/L
